Experiment [1] relates to HT22 cells. Briefly: Oxytosis/ferroptosis assay with erastin (Table 2). The experiment is classed as cell-based. The note with it: Mus musculus, HT-22; erastin as inducer; method not given; read-out: Observed EC50 erastin.
The test system of experiment [2] is HT22 cells. Put plainly: Ferroptosis Assay (RSL3-induced cell death, MTT). Format: cell-based, mouse. The note with it: Mus musculus, HT-22; HT22 cells, 1 hr pretreatment, 50 nM RSL3, 16 hr, MTT; read-out: Observed EC50 RSL3. How it is done: Ferroptosis Assay: HT22 cells were seeded at 3,000 cells/well in 96-well tissue culture plates in DMEM plus 10% FBS and 1% antibiotics. After 24 hr of plating, the cells were pretreated with different concentrations of test compounds or a vehicle control for 1 hr followed by coincubation with 50 nM RSL3 to induce the cell death cascade. After 16 hr of treatment, cell viability was measured by the MTT assay. Optical absorbance was measured at 570 nm on a SpectraMax M5 microplate reader. Samples were analyzed in eight to sixteen wells per independent experiment (n=8-16). Results were presented as the percentage of the controls with vehicle alone.

Data on 28 compounds can be found in patent US20240261302A1, “METHODS OF TREATING NEURODEGENERATIVE DISEASES OR CONDITIONS” (FloraScience Inc., priority 2023, published 2024).

In general, EC50 refers to the concentration needed to bring the measured effect to its halfway point. For `CCCCCc1cc(O)c2c(c1)O[C@@H]1CCC(C)=C[C@]21C(C)C` [D8(9)-iso-THCBF, (5aR,9aR)-9a-isopropyl-8-methyl-3-pentyl-5a,6,7,9a-tetra-hydrodibenzo[b,d]furan-1-ol], the EC50 in experiment [1] came out at 5.1 µM; in experiment [2], 1.4 µM.

With `CCCCCc1cc(O)c(CCC(C)CCCC(C)C)c(O)c1` (centres unmarked) [H4CBG, 2-(3,7-dimethyloctyl)-5-pentylbenzene-1,3-diol], the EC50 in experiment [1] worked out at 0.7 µM; in experiment [2], 0.4 µM.

For `CCCCCc1cc2c3c(c1)OC(C)(C)C1CCC(C)(CC31)O2` (centres unmarked) [CBT, 1,5,5-trimethyl-9-pentyl-6,15-dioxa-tetracyclo[9.3.1.0^4,13.0^7,12]-pentadeca-7(12),8,10-triene], the EC50 in experiment [1] and in experiment [2] was over 10 µM each time.

Regarding `C=C(C)[C@@H]1CC[C@](C)(O)[C@H]2Oc3cc(CCCCC)cc(O)c3[C@@H]12` [CBE, (5aS,6S,9R,9aR)-6-methyl-3-pentyl-9-prop-1-en-2-yl-7,8,9,9a-tetrahydro-5aH-dibenzofuran-1,6-diol], the EC50 in experiment [1] and in experiment [2] was over 10 µM each time.

Regarding `CCCCCc1cc(O)c([C@H]2CC(C)CC[C@@H]2C(C)C)c(O)c1` (stereo partly drawn) [H4CBD, 2-[(1S,6R)-6-Isopropyl-3-methylcyclohexyl]-5-pentylbenzene-1,3-diol], the EC50 in experiment [1] turned out to be 0.3 µM; in experiment [2] it was 0.4 µM.

On to `CCCc1cc(O)cc2c1-c1cc(C)ccc1C(C)(C)O2` [Abn-CBNV, 6,6,9-trimethyl-1-propyl-6H-benzo[c]chromen-3-ol], for which the half-maximal effective concentration (EC50) in experiment [1] turned out to be 9.5 µM; in experiment [2], 4.9 µM.

As for `CCCCCCc1cc(O)c2c(c1)OC(C)(C)c1ccc(C)cc1-2` [CBN-C6, 3-hexyl-6,6,9-trimethyl-6H-benzo[c]chromen-1-ol], the concentration giving a half-maximal response (EC50) in experiment [1] was 2 µM; in experiment [2] it was 0.9 µM.

Regarding `CCCCCc1cc(O)c2c(c1)OC(C)(C)C1CCC(C)CC21` (centres unmarked) [HHC, 6,6,9-trimethyl-3-pentyl-6a,7,8,9,10,10a-hexahydro-6H-benzo[c]chromen-1-ol], the 50% effective concentration (EC50) was 0.5 µM in experiment [1] and 0.3 µM in experiment [2].

As to `C=C(C)[C@@H]1CCC(C)=C[C@H]1c1c(O)cc(O)cc1CCCCC` [Abn-CBD, 4-[(1R,6R)-3-methyl-6-(1-methylethenyl)-2-cyclohexen-1-yl]-5-pentyl-1,3-benzenediol], the results for the EC50 in experiment [1] and in experiment [2] were 8 µM and 3.9 µM, respectively.

Take `CCCCCc1cc(O)c2c(c1)OC(C)(C)C1CCC(C)=CC21` (centres unmarked) [D9-THC, 6,6,9-trimethyl-3-pentyl-6a,7,8,10a-tetrahydro-6H-benzo[c]chromen-1-ol]: the EC50 in experiment [1] came out at 9.4 µM; in experiment [2] it was 4.1 µM.

As for `CCCCCc1cc(O)c2c(c1)OC1(C)CCC3C1C2C3(C)C` (stereo not drawn) [CBL, (1aR-(1a alpha,3a alpha,8b alpha,8calpha))-1a,2,3,3a,8b,8c-hexahydro-1,1,3a-trimethyl-6-pentyl-1H-4-oxabenzo(f)-cyclobut(cd)inden-8-ol], the results for the 50% effective concentration (EC50) in experiment [1] and in experiment [2] were 3.3 µM and 0.77 µM, respectively.

Regarding `C=C(C)[C@@H]1CCC(C)=C[C@H]1c1c(O)cc(CCCCC)cc1O` [CBD, 2-[(1R,6R)-6-Isopropenyl-3-methylcyclohex-2-en-1-yl]-5-pentylbenzene-1,3-diol], the EC50 in experiment [1] came out at 8.8 µM; in experiment [2], 0.86 µM.

With `CCCc1cc(OC(C)=O)c2c(c1)OC(C)(C)c1ccc(C)cc1-2` [CBNV-OAc, 6,6,9-trimethyl-3-propyl-6H-benzo[c]chromen-1-yl acetate], the concentration for a half-maximal effect (EC50) in experiment [1] came to 4 µM; in experiment [2] it was 1.6 µM.

As for `CCCCCc1cc(OC)c2c(c1)OC(C)(C)c1ccc(C)cc1-2` [CBN-OMe, 1-methoxy-6,6,9-trimethyl-3-pentyl-benzo[c]chromene], the EC50 in experiment [1] and in experiment [2] was over 10 µM throughout.

In the case of `CCCCCc1cc(O)c(-c2cccc(C)c2)c(O)c1` [4-DI-CBND, 3′-methyl-4-pentyl-[1,1′-biphenyl]-2,6-diol], the figures for the EC50 in experiment [1] and in experiment [2] were 9.6 µM and 4.2 µM, respectively.

Take `CCCCCc1cc(O)c2c(c1)OC(C)(C)C1CC=C(C)CC21` (centres unmarked) [D8-THC, 6,6,9-trimethyl-3-pentyl-6a,7,10,10a-tetrahydro-6H-benzo[c]chromen-1-ol]: the concentration for a half-maximal effect (EC50) is 2.6 µM in experiment [1] and 0.8 µM in experiment [2].

In the case of `CCCCCc1cc(O)c2c(c1)OC(C)(C)C1=C2CC(C)CC1` (centres unmarked) [D6a,10a-THC, 6,6,9-trimethyl-3-pentyl-7,8,9,10-tetrahydro-6H-benzo[c]chromen-1-ol], the 50% effective concentration (EC50) in experiment [1] worked out at 1.8 µM; in experiment [2], 0.7 µM.

Take `CCCCCc1cc(O)c(C/C=C(\C)CCC=C(C)C)c(O)c1C(=O)O` [CBGA, 3-[(2E)-3,7-Dimethylocta-2,6-dien-1-yl]-2,4-dihydroxy-6-pentylbenzoic acid]: the EC50 in experiment [1] and in experiment [2] was over 10 µM in each case.

As for `CCCc1cc(O)c2c(c1)OC(C)(C)C1CCC(C)=CC21` (centres unmarked) [THCV, 6,6,9-Trimethyl-3-propyl-6a,7,8,10a-tetrahydro-6H-benzo[c]chromen-1-ol], the EC50 in experiment [1] is 3.4 µM; in experiment [2], 0.78 µM.

For `Cc1cc(O)c2c(c1)OC(C)(C)c1ccc(C)cc1-2` [CBN-C1, 3-methyl-6,6,9-trimethyl-6H-benzo[c]chromen-1-ol], the concentration giving a half-maximal response (EC50) in experiment [1] came to 6.9 µM; in experiment [2], 2.2 µM.

On to `CCCCCc1cc(O)c2c(c1)oc1c(C)ccc(C(C)C)c12` [CBF, 5-isopropyl-8-methyl-2-pentyl-9-oxa-4-fluorenol], for which the EC50 amounted to 0.31 µM in experiment [1] and 0.15 µM in experiment [2].

`CCCCCc1cc(OC(C)=O)c2c(c1)OC(C)(C)c1ccc(C)cc1-2` [CBN-OAc, 1-acetoxy-6,6,9-trimethyl-3-pentyl-benzo[c]chromene]: the values for the concentration for a half-maximal effect (EC50) in experiment [1] and in experiment [2] were 1.9 µM and 1.3 µM, respectively.

As for `CCCCCc1cc(O)c2c(c1)OC(C)(CCC=C(C)C)C=C2` (centres unmarked) [CBC, 2-Methyl-2-(4-methylpent-3-enyl)-7-pentyl-5-chromenol], the EC50 amounted to 8.7 µM in experiment [1] and 1.1 µM in experiment [2].

For `CCCCc1cc(O)c2c(c1)OC(C)(C)c1ccc(C)cc1-2` [CBN-C4, 3-butyl-6,6,9-trimethyl-6H-benzo[c]chromen-1-ol], the EC50 in experiment [1] turned out to be 2.1 µM; in experiment [2] it was 1.1 µM.

For the compound `C=C(C)[C@@H]1CCC(C)=C[C@H]1c1c(O)cc(CCCCC)c(C(=O)O)c1O` [CBDA, (1′R,2′R)-2,6-Dihydroxy-5′-methyl-4-pentyl-2′-(prop-1-en-2-yl)-1′,2′,3′,4′-tetrahydro[1,1′-biphenyl]-3-carboxylic acid], the half-maximal effective concentration (EC50) in experiment [1] is over 10 µM; in experiment [2], 9.3 µM.

Turning to `CCCCCc1cc(O)c2c(c1)OC(C)(C)C1CCC(C)C=C21` (centres unmarked) [D10-THC, 6,6,9-trimethyl-3-pentyl-6a,7,8,9-tetrahydro-6H-benzo[c]chromen-1-ol], the EC50 was found to be 0.62 µM in experiment [1] and 0.13 µM in experiment [2].

Regarding `CCCCCc1cc(O)c2c(c1)O[C@H]1[C@@H]2[C@H](C(C)C)CC[C@]1(C)O` [H2CBE, (5aS,6S,9S,9aR)-9-isopropyl-6-methyl-3-pentyl-5a,6,7,8,9,9a-hexahydrodi-benzo[b,d]furan-1,6-diol], the EC50 came to 9.2 µM in experiment [1] and 3.5 µM in experiment [2].

Consider `CCCCCc1cc(O)c(-c2cc(C)ccc2C(C)C)c(O)c1` [H2CBND, 2,6-dihydroxy-4-pentyl-2′-isopropyl-5′-methyl-1,1′-biphenyl], for which the EC50 was found to be 5.7 µM in experiment [1] and 2.4 µM in experiment [2].
